According to US8710178B2, “Macrocyclic cysteine protease inhibitors and compositions thereof” (Lincoln University, priority 2006, dated 2014):

system: not given; test: not given; conditions: rcm bond; 16-membered ring; Grubbs II (3 x 0.10 equiv), microwave; 1,1,2-trichloroethane; 10.0 mM

| Molecule | ring closure, isolated yield |
| --- | --- |
| (E/Z)-12S-tert-Butoxycarbonylamino-9S-isobutyl-8,11-dioxo-2-oxa-7,10-diazabicyclo[12.2.2]octadeca-1(17),4,14(18),15-tetraene-6S-carboxylic acid methyl ester | 48% |

same assay, conditions: rcm bond; 17-membered ring; Grubbs II; 1,1,2-trichloroethane; 10.0 mM

| Molecule | ring closure, isolated yield |
| --- | --- |
| COC(=O)[C@@H]1C/C=C/COc2ccc(cc2)C[C@H](NC(=O)OC(C)(C)C)C(=O)N[C@@H](C(C)C)C(=O)N1 | 12% |

target: T1, calpain II (m calpain) (Homo sapiens, UniProt P17655); test: BODIPY-casein fluorescence-based enzyme assay, calpain II / m-calpain; type: biochemical; conditions: BODIPY-casein substrate, Table 3; read-out: IC50 against m-calpain
T1 sequence (P17655 1-700): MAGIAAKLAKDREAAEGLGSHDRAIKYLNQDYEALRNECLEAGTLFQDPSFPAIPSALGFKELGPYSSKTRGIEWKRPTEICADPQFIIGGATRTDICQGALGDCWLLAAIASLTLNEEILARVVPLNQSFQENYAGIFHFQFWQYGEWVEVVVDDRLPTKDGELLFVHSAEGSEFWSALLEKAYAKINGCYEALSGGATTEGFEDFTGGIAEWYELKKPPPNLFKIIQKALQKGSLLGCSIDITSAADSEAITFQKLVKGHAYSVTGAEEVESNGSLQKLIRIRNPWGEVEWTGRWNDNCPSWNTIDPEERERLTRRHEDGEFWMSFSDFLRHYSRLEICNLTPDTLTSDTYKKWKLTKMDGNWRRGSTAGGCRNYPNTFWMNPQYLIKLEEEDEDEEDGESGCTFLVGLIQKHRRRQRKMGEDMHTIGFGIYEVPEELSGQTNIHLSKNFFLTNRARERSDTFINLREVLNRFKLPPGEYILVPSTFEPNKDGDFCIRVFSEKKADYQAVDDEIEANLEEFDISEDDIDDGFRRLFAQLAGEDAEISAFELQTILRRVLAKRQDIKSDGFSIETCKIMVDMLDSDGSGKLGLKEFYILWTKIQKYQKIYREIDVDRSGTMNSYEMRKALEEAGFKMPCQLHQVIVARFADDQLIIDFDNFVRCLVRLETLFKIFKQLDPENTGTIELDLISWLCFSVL
T1 sequence (P04632 1-268 partner): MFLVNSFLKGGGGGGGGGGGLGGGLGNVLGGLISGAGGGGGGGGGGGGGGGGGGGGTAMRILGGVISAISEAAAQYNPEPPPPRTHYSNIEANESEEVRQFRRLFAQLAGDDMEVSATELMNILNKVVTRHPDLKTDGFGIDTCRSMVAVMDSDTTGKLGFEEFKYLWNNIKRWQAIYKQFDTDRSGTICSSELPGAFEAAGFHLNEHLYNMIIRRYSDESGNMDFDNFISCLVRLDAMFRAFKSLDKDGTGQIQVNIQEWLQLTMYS
Protocol: The inhibitors were assayed against several enzymes using a BODIPY-casein substrate in the fluorescence-based assay procedure of V. F. Thompson, S. Saldana, J. Cong and D. E. Goll, Anal. Biochem. 2000, 279, 170.
A number of the compounds were assayed against m-calpain using a BODIPY-casein substrate in the fluorescence-based assay procedure of V. F. Thompson, S. Saldana, J. Cong and D. E. Goll, Anal. Biochem. 2000, 279, 170.

| IC50 | Molecule |
| --- | --- |
| 45 nM | CC(C)C[C@@H]1NC(=O)[C@@H](NS(=O)(=O)c2ccc(F)cc2)Cc2ccc(cc2)OCCCC[C@@H](C=O)NC1=O [Compound 17, 4-Fluoro-N-((7S,10S,13S)-7-formyl-10-isobutyl-9,12-dioxo-2-oxa-8,1′-diaza-bicyclo[13.2.2]-nonadeca-1(18),15(19),16-trien-13-yl)-benzenesulfonamide] |
| 295 nM | CC(C)[C@@H]1NC(=O)[C@@H](NC(=O)OCc2ccccc2)Cc2ccc(cc2)OCCCCSC[C@@H](C=O)NC1=O [Compound 36] |
| 40 nM | CC(C)[C@@H]1NC(=O)[C@@H](NC(=O)OCc2ccccc2)Cc2ccc(cc2)OCCCC[C@@H](C=O)NC1=O [Compound 50] |
| 690 nM | CC(C)[C@@H]1NC(=O)[C@@H](NC(=O)c2ccc[nH]2)Cc2ccc(cc2)OCCCC[C@@H](C=O)NC1=O [Compound 52, 1H-Pyrrole-2-carboxylic acid ((7S,10S,13S)-7-formyl-10-isopropyl-9,12-dioxo-2-oxa-8,11-diaza-bicyclo[13.2.2]nonadeca-1(18),15(19),16-trien-13-yl)-amide] |
| 950 nM | CC(C)[C@@H]1NC(=O)[C@@H](NS(C)(=O)=O)Cc2ccc(cc2)OCCCC[C@@H](C=O)NC1=O [Compound 56, N-((7S,10S,13S)-7-Formyl-10-isopropyl-9,12-dioxo-2-oxa-8,11-diaza-bicyclo[13.2.2]nonadeca-1(18),15(19),16-trien-13-yl)-methanesulfonamide] |

Continued, molecule first:

| Molecule | IC50 |
| --- | --- |
| CC(C)C[C@@H]1NC(=O)[C@@H](NS(=O)(=O)c2ccc(F)cc2)Cc2ccc(cc2)OCCCC[C@@H](CO)NC1=O [Compound 16, 4-Fluoro-N-((7S,10S,13S)-7-hydroxymethyl-10-isobutyl-9,12-dioxo-2-oxa-8,11-diaza-bicyclo-[13.2.2]nonadeca-1(18),15(19),16-trien-13-yl)-benzenesulfonamide] | 930 nM |
| CC(C)[C@@H]1NC(=O)[C@@H](NS(=O)(=O)c2ccc(F)cc2)Cc2ccc(cc2)OCCCC[C@@H](C=O)NC1=O [Compound 54, 4-Fluoro-N-((7S,10S,135)-7-formyl-10-isopropyl-9,12-dioxo-2-oxa-8,11-diaza-bicyclo[13.2.2]nonadeca-1(18),15(19),16-trien-13-yl)-benzenesulfonamide] | 280 nM |
| CC(C)[C@@H]1NC(=O)[C@@H](NS(=O)(=O)c2ccc(F)cc2)Cc2ccc(cc2)OCCCCSC[C@@H](C=O)NC1=O [Compound 58, 4-Fluoro-N-((9R,12S,15S)-9-formyl-12-isopropyl-11,14-dioxo-2-oxa-7-thia-10,13-diaza-bicyclo[15.2.2]henicosa-1(20),17(21),18-trien-15-yl)-benzenesulfonamide] | 2400 nM |
| CC(C)[C@@H]1NC(=O)[C@@H](NS(=O)(=O)c2ccc(F)cc2)Cc2ccc(cc2)OCCC[C@@H](C=O)NC1=O [Compound 69, 4-Fluoro-N-((6S,9S,12S)-6-formyl-9-isopropyl-8,11-dioxo-2-oxa-7,10-diaza-bicyclo[12.2.2]octadeca-1(17),14(18),15-trien-12-yl)-benzenesulfonamide] | 3710 nM |
| CC(C)C[C@@H]1NC(=O)[C@@H](NC(=O)OCc2ccccc2)Cc2ccc(cc2)OCCCC[C@@H](CNC2CC2)NC1=O [Compound 81, ((7S,10S,13S)-7-Cyclopropylaminomethyl-10-isobutyl-9,12-dioxo-2-oxa-8,11-diaza-bicyclo[13.2.2]nonadeca-1(18),15(19),16-trien-13-yl)-carbamic acid benzyl ester] | > 50000 nM |
